ChEMBL document CHEMBL4043090 (Bioorg Med Chem, 2017)

How the values were obtained:
[1] = Cytotoxicity against human MAGI-CCR5 cells assessed as reduction in cell viability after 48 hrs by MTS assay; type: cell-based; conditions: read-out: TC50
[2] = system: Human immunodeficiency virus 1; test: Antiviral activity against HIV-1 Bal infected in human MAGI-CCR5 cells assessed as reduction in viral infection after 48 hrs by fluorescence based beta-galactosidase reporter gene assay; type: functional, cell-based; conditions: for IC50 / IC90: Human immunodeficiency virus 1, Bal, MAGI-CCR5, 48 h
[3] = Therapeutic index, ratio of TC50 for human MAGI-CCR5 cells to IC50 for HIV-1 Bal infected in MAGI-CCR5 cells
PBMC = test: Antiviral activity against HIV-1 Bal infected in human PBMC by MTS assay; type: functional, cell-based
[4] = Cytotoxicity against human PBMC assessed as reduction in cell viability by MTS assay; type: cell-based; conditions: read-out: TC50 (the source's name)
[5] = Therapeutic index, ratio of TC50 for human PBMC to IC50 for HIV-1 Bal infected in human PBMC

With `CC1=C(c2nc(-c3ccc(C#N)cc3)cs2)C(c2ccc(Cl)nc2Cl)NC(=O)N1` (centres undefined) as the compound, how does the CC50 at 48 h [1] read?
The CC50 at 48 h was over 100 µM.

And the Activity [2]?
The Activity was “Dose-dependent effect”.

And the IC50 [2]?
Its IC50 is 0.86 µM.

What about the IC90 [2] of the same compound?
The IC90 was 5.8 µM.

And the TI [3]?
Its TI is 116.

And the IC50 (PBMC)?
Its IC50 is 1.9 µM.

What about the IC90 (PBMC) of the same compound?
The IC90 was 5.7 µM.

What about the CC50 [4] of the same compound?
The CC50 was 99.1 µM.

And the TI [5]?
Its TI is 52.

For `CC1=C(c2nc(-c3ccc(C#N)cc3)cs2)C(c2ccc(OCc3ccccc3)cc2)NC(=O)N1` (centres undefined), which CC50 at 48 h [1] is on record?
Its CC50 at 48 h is over 10 µM.

And the Activity [2]?
The Activity was “Dose-dependent effect”.

What about the IC50 [2] of the same compound?
The IC50 was 0.13 µM.

And the IC90 [2]?
The IC90 was 0.75 µM.

And the TI [3]?
Its TI is 77.

What about the IC50 (PBMC) of the same compound?
The IC50 was 0.21 µM.

What about the IC90 (PBMC) of the same compound?
Its IC90 is 0.6 µM.

What about the CC50 [4] of the same compound?
Its CC50 is over 100 µM.

What about the TI [5] of the same compound?
Its TI is 476.

With `CC1=C(c2nc(-c3ccc(C#N)cc3)cs2)C(c2ccnc(Cl)c2)NC(=O)N1` (centres undefined) as the compound, how does the CC50 at 48 h [1] read?
The CC50 at 48 h was over 100 µM.

What about the Activity [2] of the same compound?
The Activity was “Dose-dependent effect”.

What about the IC50 [2] of the same compound?
Its IC50 is 3.2 µM.

What about the IC90 [2] of the same compound?
Its IC90 is over 100 µM.

What about the TI [3] of the same compound?
Its TI is 31.

What about the IC50 (PBMC) of the same compound?
The IC50 was 4.4 µM.

And the IC90 (PBMC)?
Its IC90 is 44.5 µM.

And the CC50 [4]?
Its CC50 is over 100 µM.

What about the TI [5] of the same compound?
Its TI is 23.

For `CC1=C(c2nc(-c3cccs3)cs2)C(c2cccc(O)c2)NC(=O)N1` (centres undefined), which CC50 at 48 h [1] is on record?
Its CC50 at 48 h is over 100 µM.

What about the IC50 [2] of the same compound?
Its IC50 is 49 µM.

What about the IC90 [2] of the same compound?
Its IC90 is over 100 µM.

And the TI [3]?
Its TI is 2.

With `CC1=C(c2nc(-c3ccc(C#N)cc3)cs2)C(c2cccc(O)c2)NC(=O)N1C` (centres undefined) as the compound, how does the CC50 at 48 h [1] read?
Its CC50 at 48 h is over 100 µM.

And the Activity [2]?
The Activity was “Dose-dependent effect”.

And the IC50 [2]?
The IC50 was 2.4 µM.

And the IC90 [2]?
The IC90 was 13.8 µM.

And the TI [3]?
The TI was 42.

What about the IC50 (PBMC) of the same compound?
Its IC50 is 3.2 µM.

And the IC90 (PBMC)?
The IC90 was 8.5 µM.

And the CC50 [4]?
Its CC50 is over 100 µM.

And the TI [5]?
Its TI is 31.

For `CC1=C(c2nc(-c3ccc(C#N)cc3)cs2)C(c2cncc(F)c2)NC(=O)N1` (centres undefined), which CC50 at 48 h [1] is on record?
Its CC50 at 48 h is over 100 µM.

What about the Activity [2] of the same compound?
Its Activity is “Dose-dependent effect”.

What about the IC50 [2] of the same compound?
Its IC50 is 0.7 µM.

What about the IC90 [2] of the same compound?
The IC90 was over 100 µM.

And the TI [3]?
Its TI is 143.

And the IC50 (PBMC)?
The IC50 was 0.53 µM.

And the IC90 (PBMC)?
The IC90 was 1.3 µM.

What about the CC50 [4] of the same compound?
Its CC50 is over 100 µM.

And the TI [5]?
The TI was 189.

For `CC1=C(c2nc(-c3ccc(C#N)cc3)cs2)C(c2cccc(OC(F)(F)F)c2)NC(=O)N1` (centres undefined), which CC50 at 48 h [1] is on record?
Its CC50 at 48 h is over 100 µM.

And the Activity [2]?
Its Activity is “Dose-dependent effect”.

What about the IC50 [2] of the same compound?
The IC50 was 2.4 µM.

What about the IC90 [2] of the same compound?
Its IC90 is 69.8 µM.

What about the TI [3] of the same compound?
Its TI is 42.

What about the IC50 (PBMC) of the same compound?
Its IC50 is 41.2 µM.

What about the IC90 (PBMC) of the same compound?
The IC90 was over 100 µM.

And the CC50 [4]?
Its CC50 is over 100 µM.

What about the TI [5] of the same compound?
The TI was 2.4.

Which CC50 at 48 h [1] does the source give for `COc1cncc(C2NC(=O)NC(C)=C2c2nc(-c3ccc(C#N)cc3)cs2)c1` (centres undefined) here?
Its CC50 at 48 h is over 100 µM.

And the IC50 [2]?
Its IC50 is 10.4 µM.

What about the IC90 [2] of the same compound?
The IC90 was over 100 µM.

What about the TI [3] of the same compound?
The TI was 9.6.

For `CC1=C(c2nc(-c3ccc(C)cc3)cs2)C(c2cccc(O)c2)NC(=O)N1` (centres undefined), which CC50 at 48 h [1] is on record?
Its CC50 at 48 h is 61 µM.

And the Activity [2]?
The Activity was “Dose-dependent effect”.

What about the IC50 [2] of the same compound?
The IC50 was 31 µM.

And the IC90 [2]?
Its IC90 is 80 µM.

And the TI [3]?
The TI was 2.

What about the IC50 (PBMC) of the same compound?
Its IC50 is 16 µM.

What about the IC90 (PBMC) of the same compound?
The IC90 was 48 µM.

And the CC50 [4]?
The CC50 was 65 µM.

What about the TI [5] of the same compound?
Its TI is 4.1.

Which CC50 at 48 h [1] does the source give for `CC1=C(c2nc(-c3cccc(C#N)c3)cs2)C(c2cccc(O)c2)NC(=O)N1` (centres undefined) here?
Its CC50 at 48 h is 51.8 µM.

And the Activity [2]?
Its Activity is “Dose-dependent effect”.

What about the IC50 [2] of the same compound?
Its IC50 is 8.7 µM.

And the IC90 [2]?
The IC90 was 38.1 µM.

What about the TI [3] of the same compound?
Its TI is 6.

What about the IC50 (PBMC) of the same compound?
The IC50 was 5 µM.

And the IC90 (PBMC)?
Its IC90 is 15.1 µM.

What about the CC50 [4] of the same compound?
Its CC50 is 74 µM.

And the TI [5]?
Its TI is 15.

For `CC1=C(c2nc(-c3ccc(C(F)(F)F)cc3)cs2)C(c2cccc(O)c2)NC(=O)N1` (centres undefined), which CC50 at 48 h [1] is on record?
The CC50 at 48 h was 40 µM.

And the Activity [2]?
Its Activity is “Dose-dependent effect”.

And the IC50 [2]?
Its IC50 is 5.2 µM.

What about the IC90 [2] of the same compound?
The IC90 was 23 µM.

And the TI [3]?
The TI was 7.7.

And the IC50 (PBMC)?
Its IC50 is 5.9 µM.

What about the IC90 (PBMC) of the same compound?
The IC90 was 18 µM.

And the CC50 [4]?
The CC50 was 57 µM.

What about the TI [5] of the same compound?
Its TI is 9.7.

With `CC1=C(c2nc(-c3ccc(C#N)cc3)cs2)C(c2cccnc2Cl)NC(=O)N1` (centres undefined) as the compound, how does the CC50 at 48 h [1] read?
The CC50 at 48 h was over 100 µM.

And the Activity [2]?
Its Activity is “Dose-dependent effect”.

What about the IC50 [2] of the same compound?
Its IC50 is 2.2 µM.

And the IC90 [2]?
Its IC90 is 85.5 µM.

And the TI [3]?
Its TI is 46.

And the IC50 (PBMC)?
Its IC50 is 1.5 µM.

And the IC90 (PBMC)?
The IC90 was 8.8 µM.

And the CC50 [4]?
Its CC50 is over 100 µM.

What about the TI [5] of the same compound?
Its TI is 67.

With `CC1=C(c2nc(-c3ccc(Cl)cc3)cs2)C(c2cccc(O)c2)NC(=O)N1` (centres undefined) as the compound, how does the CC50 at 48 h [1] read?
The CC50 at 48 h was 55 µM.

What about the Activity [2] of the same compound?
Its Activity is “Dose-dependent effect”.

What about the IC50 [2] of the same compound?
The IC50 was 1.9 µM.

What about the IC90 [2] of the same compound?
Its IC90 is 11 µM.

What about the TI [3] of the same compound?
The TI was 29.

And the IC50 (PBMC)?
The IC50 was 1.3 µM.

And the IC90 (PBMC)?
Its IC90 is 4.1 µM.

What about the CC50 [4] of the same compound?
The CC50 was 65 µM.

And the TI [5]?
Its TI is 50.

What does the source list for `COc1ccc(-c2csc(C3=C(C)NC(=O)NC3c3cccc(O)c3)n2)cc1` (centres undefined)?
CC50 at 48 h [1]: > 100 µM; Activity [2]: Dose-dependent effect; IC50 [2]: 66 µM; IC90 [2]: > 100 µM; TI [3]: 1.5; IC50 (PBMC): 30 µM; IC90 (PBMC): 78 µM; CC50 [4]: 91 µM; TI [5]: 3

Which results are given for `CC1=C(c2nc(-c3ccc(C#N)cc3)cs2)C(c2cc3ccccc3[nH]2)NC(=O)N1` (centres undefined)?
CC50 at 48 h [1]: 50.5 µM; Activity [2]: Dose-dependent effect; IC50 [2]: 2.1 µM; IC90 [2]: 10.4 µM; TI [3]: 24; IC50 (PBMC): 3.5 µM; IC90 (PBMC): 10.8 µM; CC50 [4]: 69.8 µM; TI [5]: 20

What does the source list for `CC1=C(c2nc(-c3ccc(C#N)cc3)cs2)C(c2ccc(Oc3ccccc3)cc2)NC(=O)N1` (centres undefined)?
CC50 at 48 h [1]: > 10 µM; Activity [2]: Dose-dependent effect; IC50 [2]: 0.12 µM; IC90 [2]: 0.62 µM; TI [3]: 83; IC50 (PBMC): 0.53 µM; IC90 (PBMC): 1.8 µM; CC50 [4]: > 100 µM; TI [5]: 189
